According to patent publication US12268901B2, “Targeting cell tropism receptors to inhibit cytomegalovirus infection” (priority 2017, dated 2025):
Entries after “also recorded” stand apart in the source; their conditions may differ.

How the values were obtained:
Format in all cases: cell-based, Human cytomegalovirus (HCMV)
[1] = tested on: TB40E-GFP virus binding to ARPE19 cells; test: Peptide blocking assay, cell-binding virus assay (viral DNA by qPCR); conditions: different amounts of Peptide 1 preincubated with virus at 37° C. for 2 h, applied to ARPE19 cells at 4° C. for 2 h
Description: The shPDGFRA, shOR14I1 and shDMBT1 transduced ARPE19 cells were chilled on ice for 20 min and then incubated with chilled TB40E-GFP at the indicated MOT on ice for 1 h. The cells were then washed ten times with cold PBS. Cellular DNA and cell-associated viral DNA were isolated using a DNeasy Blood & Tissue Kit (Qiagen). Viral DNA (UL83) and host DNA ((β-ACTIN) was quantified by real-time quantitative PCR as described (E et al., J Virol 88, 2279-2290 (2014)).
DNA was isolated from infected ARPE cells using the Dneasy Blood and Tissue DNA mini kit (Qiagen) according to the manufacturer's instructions. Viral genomes were quantified with a primer pair (pp549s and pp812as) and a probe (pp770s) for UL83 (3), and the number of viral genomes normalized to the number of cellular copies of β-ACTIN with a previously described set of primers and probe (4). Unknown sample values were determined on the basis of a standard curve of known copy numbers of UL83 (AD169-BAC) and β-ACTIN (pAB1-bactin-PCRscript) (kind gifts from Donald Coen, Harvard Medical School). […] Real-time PCR was performed and analyzed by using a ViiA7 Real-Time PCR System (Applied Biosystems). […]
Viral binding to ARPE19 cells was evaluated in the presence of Sf9-OR14I1 membrane particles. […] After washing with cold PBS, viral DNA levels were quantified by qPCR. […] After cold PBS washing, viral DNA levels were quantified by qPCR. […]

[2] = tested on: HCMV infection of HEL fibroblasts; test: Peptide blocking assay, infection of HEL fibroblasts (percent IE positive cells); conditions: peptide 1 100 μg/ml, MOI=2.0
Description: FIG. 9. […] TB40E-GFP encoding the viral PC or AD169 lacking PC were preincubated with peptide 1 (100 μg/ml) and then infected on ARPE19 epithelial cells or HEL fibroblasts (MOI=2.0). Cells were fixed, permeabilized, stained for DNA, immunostained for anti-immediate early protein (IE) and imaged. […] Values indicate the mean percentage of infected cells of n=3 experiments±SD. **p<0.01; ***p<0.001.
Live cell images: Phase and GFP signal images were captured on a Zeiss microscope (Zeiss AxioObserver Z1) at 10× magnification. Fixed cell images: cells were washed with PBS (Life Technologies) and fixed with 4% formalin in PBS (Sigma). DNA was stained with Hoechst 33342 dye (Life Technologies). The fixed cells were imaged using an Image Xpress Micro (IXM, Molecular Devices) at 4× magnification. Images were analyzed with MetaXpress imaging software (Molecular Devices) to determine the total cells per well and the percentage of infected cells (GFP positive) in each well. For IE immunostaining: fixed cells were permeabilized with 0.2% Triton X-100 (Sigma) in PBS. Blocking was performed with 1% BSA (Calbiochem, 2930) in PBS with 0.3M glycine (Sigma). Cells were then incubated in antibody targeting the major IE proteins (IE, EMD Millipore, MAB8131) diluted in 1% BSA in PBS. […]

[3] = tested on: TB40E virus infection of epithelial cell lines; test: Peptide blocking assay, infection of several epithelial cell lines (percent GFP positive cells); conditions: Peptide 1 100 μg/ml, MOI=2.0, 2 dpi
Description: FIG. 10. […] Peptide 1 (100 μg/ml), or DMSO alone was preincubated with TB40E virus, followed by infection of the indicated epithelial cell lines (MOI=2.0). Cells were fixed and imaged for GFP and DNA at 2 dpi. […] Values indicate the mean percentage of infected cells of three experiments±SD. **p<0.01; ***p<0.001.
The noted synthetic peptides (100 ug/ml each or as described) were mixed with TB40E-GFP virus (1.2×10^6 PFU) and incubated at 37° C. for 2 h by rocking. The resulting samples were then subjected to the virus binding or infection assay.

[4] = tested on: TB40E-GFP infection of ARPE19 cells; test: cAMP/PKA signaling pathway modulation, TB40E-GFP infection; conditions: H-89 20 μM, SQ22536 150 μM, FSK 20 μM, 2 h prior to infection, MOI=4.0, 48 hpi
Description: (§1) FIGS. 7A-C. HCMV receptor engagement and cAMP/PKA signaling. ARPE19 or OR14I1 knock down cells were pretreated with phosphokinase A (PKA) inhibitor H-89 (20 μM), adenylate cyclase antagonist, SQ22536 (150 μM), or adenylate cyclase activator, forskolin (FSK; 20 μM) for 2 h prior to TB40E-GFP infection (MOI=4.0). Cells were fixed at 48 hpi and images taken.
H-89, SQ22536 and Foskolin were purchased from Sigma-Aldrich Chemicals. Wild type ARPE19 or ARPE19 cells expressing the indicated shRNAs were treated with protein kinase A (PKA) inhibitor H-89 (20 μM), adenylate cyclase antagonist, SQ22536 (150 μM), or adenylate cyclase activator, forskolin (FSK; 20 μM) for 2 h prior to infection with TB40E-GFP (MOI=2.0). After 2 h, the medium was then replaced by the standard medium that also contained the noted small molecules. Images were taken at 2 dpi.
as §1, with “HCMV” for “FIGS. 7A-C. HCMV”, “signaling was also evaluated.” for “signaling.”, “(MOI=4.0).” for “(MOI=4.0). Cells were fixed at 48 hpi and images taken.”

Sequence: MDNLTKVTEFLLMEFSGIWELQVLHA (N-terminal fragment of OR14I1) [Peptide 1, synthetic peptide representing the N-terminus of OR14I1, position 1-26]
- TB40E-GFP virus binding to ARPE19 cells (viral DNA by qPCR) [1]: sufficient to prevent for TB40E-GFP virus binding ARPE19 cells
- PC+ HCMV infection of fibroblasts [2]: modest effect
- PC+ virus infection of multiple epithelial cell lines (percent GFP positive cells) [3]: prevented PC+ virus infection; also recorded: inhibits HCMV infection of several epithelial cell lines
- infectivity of TB40E-GFP in ARPE19 epithelial cells [4]: reduced infectivity significantly
